Reference: PubChem BioAssay (NCI)
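GI50 = concentration required for 50% inhibition of growth. TGI is the concentration that stops growth completely.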

Tests used:
Experiment in all cases: NCI-60 cell line screen, 384-well format
SK-MEL-28 melanoma = test system: SK-MEL-28 melanoma
MOLT-4 leukemia = test system: MOLT-4 leukemia
A549 NSCLC = test system: A549 NSCLC
OVCAR-4 ovarian = test system: OVCAR-4 ovarian
COLO 205 colon = test system: COLO 205 colon
K-562 leukemia = test system: K-562 leukemia
SR leukemia = test system: SR leukemia
SNB-75 CNS = test system: SNB-75 CNS
786-0 renal = test system: 786-0 renal
DU-145 prostate = test system: DU-145 prostate
UACC-257 melanoma = test system: UACC-257 melanoma
HT29 colon = test system: HT29 colon
EKVX NSCLC = test system: EKVX NSCLC
SW-620 colon = test system: SW-620 colon
UO-31 renal = test system: UO-31 renal
HOP-62 NSCLC = test system: HOP-62 NSCLC
UACC-62 melanoma = test system: UACC-62 melanoma
HOP-92 NSCLC = test system: HOP-92 NSCLC
NCI-H23 lung = test system: NCI-H23 lung
SF-295 CNS = test system: SF-295 CNS
SK-MEL-2 melanoma = test system: SK-MEL-2 melanoma
MDA-MB-435 melanoma = test system: MDA-MB-435 melanoma
MDA-MB-231 breast = test system: MDA-MB-231 breast
HL-60(TB) leukemia = test system: HL-60(TB) leukemia
RPMI-8226 leukemia = test system: RPMI-8226 leukemia
MCF7 breast = test system: MCF7 breast
RXF 393 renal = test system: RXF 393 renal
MALME-3M melanoma = test system: MALME-3M melanoma
SN12C renal = test system: SN12C renal
NCI/ADR-RES ovarian = test system: NCI/ADR-RES ovarian
ACHN renal = test system: ACHN renal
NCI-H226 lung = test system: NCI-H226 lung
HS 578T breast = test system: HS 578T breast
SNB-19 CNS = test system: SNB-19 CNS
NCI-H522 lung = test system: NCI-H522 lung
M14 melanoma = test system: M14 melanoma
PC-3 prostate = test system: PC-3 prostate
OVCAR-8 ovarian = test system: OVCAR-8 ovarian
HCC-2998 colon = test system: HCC-2998 colon
OVCAR-3 ovarian = test system: OVCAR-3 ovarian
U251 glioblastoma = test system: U251 glioblastoma
LOX IMVI melanoma = test system: LOX IMVI melanoma
SK-MEL-5 melanoma = test system: SK-MEL-5 melanoma
TK-10 renal = test system: TK-10 renal
NCI-H460 NSCLC = test system: NCI-H460 NSCLC
KM12 colon = test system: KM12 colon
IGROV1 ovarian = test system: IGROV1 ovarian

C[C@@H](O)[C@H](NC(=O)N[C@@H](CC(N)=O)c1nc([C@@H](N)CO)no1)C(=O)O
GI50 (SK-MEL-28 melanoma): > 100 µM
TGI (SK-MEL-28 melanoma): > 100 µM
GI50 (MOLT-4 leukemia): > 100 µM
TGI (MOLT-4 leukemia): > 100 µM
GI50 (A549 NSCLC): > 100 µM
TGI (A549 NSCLC): > 100 µM
GI50 (OVCAR-4 ovarian): > 100 µM
TGI (OVCAR-4 ovarian): > 100 µM
GI50 (COLO 205 colon): > 100 µM
TGI (COLO 205 colon): > 100 µM
GI50 (K-562 leukemia): > 100 µM
TGI (K-562 leukemia): > 100 µM
GI50 (SR leukemia): > 100 µM
TGI (SR leukemia): > 100 µM
GI50 (SNB-75 CNS): > 100 µM
TGI (SNB-75 CNS): > 100 µM
GI50 ([…]-0 renal): > 100 µM
TGI (786-0 renal): > 100 µM
GI50 (DU-145 prostate): > 100 µM
TGI (DU-145 prostate): > 100 µM
GI50 (UACC-257 melanoma): > 100 µM
TGI (UACC-257 melanoma): > 100 µM
GI50 (HT29 colon): > 100 µM
TGI (HT29 colon): > 100 µM
GI50 (EKVX NSCLC): > 100 µM
TGI (EKVX NSCLC): > 100 µM
GI50 (SW-620 colon): > 100 µM
TGI (SW-620 colon): > 100 µM
GI50 (UO-31 renal): > 100 µM
TGI (UO-31 renal): > 100 µM
GI50 (HOP-62 NSCLC): > 100 µM
TGI (HOP-62 NSCLC): > 100 µM
GI50 (UACC-62 melanoma): > 100 µM
TGI (UACC-62 melanoma): > 100 µM
GI50 (HOP-92 NSCLC): > 100 µM
TGI (HOP-92 NSCLC): > 100 µM
GI50 (NCI-H23 lung): > 100 µM
TGI (NCI-H23 lung): > 100 µM
GI50 (SF-295 CNS): > 100 µM
TGI (SF-295 CNS): > 100 µM
GI50 (SK-MEL-2 melanoma): > 100 µM
TGI (SK-MEL-2 melanoma): > 100 µM
GI50 (MDA-MB-435 melanoma): > 100 µM
TGI (MDA-MB-435 melanoma): > 100 µM
GI50 (MDA-MB-231 breast): > 100 µM
TGI (MDA-MB-231 breast): > 100 µM
GI50 (HL-60(TB) leukemia): > 100 µM
TGI (HL-60(TB) leukemia): > 100 µM
GI50 (RPMI-8226 leukemia): > 100 µM
TGI (RPMI-8226 leukemia): > 100 µM
GI50 (MCF7 breast): > 100 µM
TGI (MCF7 breast): > 100 µM
GI50 (RXF 393 renal): > 100 µM
TGI (RXF 393 renal): > 100 µM
GI50 (MALME-3M melanoma): > 100 µM
TGI (MALME-3M melanoma): > 100 µM
GI50 (SN12C renal): > 100 µM
TGI (SN12C renal): > 100 µM
GI50 (NCI/ADR-RES ovarian): > 100 µM
TGI (NCI/ADR-RES ovarian): > 100 µM
GI50 (ACHN renal): > 100 µM
TGI (ACHN renal): > 100 µM
GI50 (NCI-H226 lung): > 100 µM
TGI (NCI-H226 lung): > 100 µM
GI50 (HS 578T breast): > 100 µM
TGI (HS 578T breast): > 100 µM
GI50 (SNB-19 CNS): > 100 µM
TGI (SNB-19 CNS): > 100 µM
GI50 (NCI-H522 lung): > 100 µM
TGI (NCI-H522 lung): > 100 µM
GI50 (M14 melanoma): > 100 µM
TGI (M14 melanoma): > 100 µM
GI50 (PC-3 prostate): > 100 µM
TGI (PC-3 prostate): > 100 µM
GI50 (OVCAR-8 ovarian): > 100 µM
TGI (OVCAR-8 ovarian): > 100 µM
GI50 (HCC-2998 colon): > 100 µM
TGI (HCC-2998 colon): > 100 µM
GI50 (OVCAR-3 ovarian): > 100 µM
TGI (OVCAR-3 ovarian): > 100 µM
GI50 (U251 glioblastoma): > 100 µM
TGI (U251 glioblastoma): > 100 µM
GI50 (LOX IMVI melanoma): > 100 µM
TGI (LOX IMVI melanoma): > 100 µM
GI50 (SK-MEL-5 melanoma): > 100 µM
TGI (SK-MEL-5 melanoma): > 100 µM
GI50 (TK-10 renal): > 100 µM
TGI (TK-10 renal): > 100 µM
GI50 (NCI-H460 NSCLC): > 100 µM
TGI (NCI-H460 NSCLC): > 100 µM
GI50 (KM12 colon): > 100 µM
TGI (KM12 colon): > 100 µM
GI50 (IGROV1 ovarian): > 100 µM
TGI (IGROV1 ovarian): > 100 µM
